# Assay results from paper PMC5218480 (PLoS ONE, 2017).
# Tested on: MV-4-11 cells
# Test: Gene expression microarray analysis (Affymetrix PrimeView) and GSEA
# Assay type: cell-based, human
# Set-up: RFU PODN (11730768_x_at) / Fold change /veh PODN (11730768_x_at) / RFU LINC00158 (11744669_a_at) / Fold change /veh LINC00158 (11744669_a_at) / RFU DUSP10 (11751237_a_at) / Fold change /veh DUSP10 (11751237_a_at) / RFU ID3 (11757404_x_at) / Fold change /veh ID3 (11757404_x_at) / RFU PLEKHG5 (11737974_s_at) / Fold change /veh PLEKHG5 (11737974_s_at) / RFU LRRC4B (11730491_at) / Fold change /veh LRRC4B (11730491_at) / RFU GIMAP4 (11747438_a_at) / Fold change /veh GIMAP4 (11747438_a_at) / RFU KRT8 (11758183_x_at) / Fold change /veh KRT8 (11758183_x_at) / RFU CNN1 (11734310_a_at) / Fold change /veh CNN1 (11734310_a_at) / RFU VPS37D (11726825_at) / Fold change /veh VPS37D (11726825_at) / RFU C10orf10 (11716522_x_at) / Fold change /veh C10orf10 (11716522_x_at) / RFU KIR2DL2 /// KIR2DL4 /// KIR2DL5A /// KIR2DL5B /// KIR2DS1 /// KIR2DS2 /// KIR2DS3 /// KIR2DS4 /// KIR3DL3 /// KIR3DL3 /// KIR3DS1 (11738374_at) / Fold change /veh KIR2DL2 /// KIR2DL4 /// KIR2DL5A /// KIR2DL5B /// KIR2DS1 /// KIR2DS2 /// KIR2DS3 /// KIR2DS4 /// KIR3DL3 /// KIR3DL3 /// KIR3DS1 (11738374_at) / RFU C1QL1 (11718748_at) / Fold change /veh C1QL1 (11718748_at) / RFU TMPRSS4 (11747572_a_at) / Fold change /veh TMPRSS4 (11747572_a_at) / RFU HAMP (11756126_x_at) / Fold change /veh HAMP (11756126_x_at) / RFU RNFT2 (11725882_a_at) / Fold change /veh RNFT2 (11725882_a_at) / RFU NR4A2 (11747474_a_at) / Fold change /veh NR4A2 (11747474_a_at) / RFU ABCC12 (11746883_a_at) / Fold change /veh ABCC12 (11746883_a_at) / RFU TMEM136 (11760407_x_at) / Fold change /veh TMEM136 (11760407_x_at) / RFU CLDN22 /// WWC2 (11732394_at) / Fold change /veh CLDN22 /// WWC2 (11732394_at) / RFU HLA-DPB1 (11760878_x_at) / Fold change /veh HLA-DPB1 (11760878_x_at) / RFU SPINT1 (11716480_a_at) / Fold change /veh SPINT1 (11716480_a_at) / RFU GAP43 (11754022_s_at) / Fold change /veh GAP43 (11754022_s_at) / RFU A4GNT (11735810_at) / Fold change /veh A4GNT (11735810_at) / RFU PRB3 (11715151_x_at) / Fold change /veh PRB3 (11715151_x_at) / RFU TUBB4B (11761932_at) / Fold change /veh TUBB4B (11761932_at) / RFU CAPN14 (11732068_a_at) / Fold change /veh CAPN14 (11732068_a_at) / RFU TMCC2 (11721928_a_at) / Fold change /veh TMCC2 (11721928_a_at) / RFU IRGQ (11745062_a_at) / Fold change /veh IRGQ (11745062_a_at) / RFU FAM174B (11720279_a_at) / Fold change /veh FAM174B (11720279_a_at) / RFU TMPRSS4 (11748680_a_at) / Fold change /veh TMPRSS4 (11748680_a_at) / RFU FAM212B (11763350_a_at) / Fold change /veh FAM212B (11763350_a_at) / RFU PLEKHG5 (11743358_a_at) / Fold change /veh PLEKHG5 (11743358_a_at) / RFU ZSCAN30 (11745921_a_at) / Fold change /veh ZSCAN30 (11745921_a_at) / RFU CMKLR1 (11741424_a_at) / Fold change /veh CMKLR1 (11741424_a_at) / RFU LOC101060620 /// MAPK8IP1 (11723275_at) / Fold change /veh LOC101060620 /// MAPK8IP1 (11723275_at) / RFU SPTSSB (11747773_x_at) / Fold change /veh SPTSSB (11747773_x_at) / RFU PRSS12 (11739890_at) / Fold change /veh PRSS12 (11739890_at) / RFU BIN1 (11741810_x_at) / Fold change /veh BIN1 (11741810_x_at) / RFU WNT11 (11732464_a_at) / Fold change /veh WNT11 (11732464_a_at) / RFU C10orf10 (11716521_a_at) / Fold change /veh C10orf10 (11716521_a_at) / RFU C5orf56 (11738089_at) / Fold change /veh C5orf56 (11738089_at) / RFU CYB561 (11721691_x_at) / Fold change /veh CYB561 (11721691_x_at) / RFU ANKRD19P (11752326_a_at) / Fold change /veh ANKRD19P (11752326_a_at) / RFU OR2T12 /// OR2T33 /// OR2T8 (11738714_s_at) / Fold change /veh OR2T12 /// OR2T33 /// OR2T8 (11738714_s_at) / RFU VCAN (11748164_a_at) / Fold change /veh VCAN (11748164_a_at) / RFU JSRP1 (11732532_at) / Fold change /veh JSRP1 (11732532_at) / RFU KRTAP10-11 (11738290_x_at) / Fold change /veh KRTAP10-11 (11738290_x_at) / RFU MYO3A (11730013_a_at) / Fold change /veh MYO3A (11730013_a_at) / RFU EBF3 (11725865_a_at) / Fold change /veh EBF3 (11725865_a_at) / RFU CAMK2N1 (11719241_x_at) / Fold change /veh CAMK2N1 (11719241_x_at) / RFU C5orf56 (11738088_a_at) / Fold change /veh C5orf56 (11738088_a_at) / RFU OLFML3 (11715873_a_at) / Fold change /veh OLFML3 (11715873_a_at) / RFU LOC100653217 /// NTM (11731650_a_at) / Fold change /veh LOC100653217 /// NTM (11731650_a_at) / RFU MAPK11 (11762145_a_at) / Fold change /veh MAPK11 (11762145_a_at) / RFU FIZ1 (11724087_x_at) / Fold change /veh FIZ1 (11724087_x_at) / RFU OASL (11726364_x_at) / Fold change /veh OASL (11726364_x_at) / RFU SOX15 (11748057_x_at) / Fold change /veh SOX15 (11748057_x_at) / RFU CD79A (11719716_a_at) / Fold change /veh CD79A (11719716_a_at) / RFU HIST1H1D (11736915_at) / Fold change /veh HIST1H1D (11736915_at) / RFU CASKIN2 (11723855_a_at) / Fold change /veh CASKIN2 (11723855_a_at) / RFU LOC730098 (11760151_x_at) / Fold change /veh LOC730098 (11760151_x_at) / RFU OR4N2 (11742367_at) / Fold change /veh OR4N2 (11742367_at) / RFU PRRT2 (11749266_a_at) / Fold change /veh PRRT2 (11749266_a_at) / RFU SNX32 (11753110_a_at) / Fold change /veh SNX32 (11753110_a_at) / RFU CDHR5 (11726645_a_at) / Fold change /veh CDHR5 (11726645_a_at) / RFU RCAN1 (11760418_a_at) / Fold change /veh RCAN1 (11760418_a_at) / RFU FAM167A (11723789_a_at) / Fold change /veh FAM167A (11723789_a_at) / RFU FAM26E (11764081_at) / Fold change /veh FAM26E (11764081_at) / RFU ISYNA1 (11749810_s_at) / Fold change /veh ISYNA1 (11749810_s_at) / RFU ACY1 (11761880_at) / Fold change /veh ACY1 (11761880_at) / RFU 11764098_at / Fold change /veh 11764098_at / RFU SAMD14 (11745864_x_at) / Fold change /veh SAMD14 (11745864_x_at) / RFU NPB (11741838_a_at) / Fold change /veh NPB (11741838_a_at) / RFU TMPRSS6 (11731388_a_at) / Fold change /veh TMPRSS6 (11731388_a_at) / RFU KRTAP10-2 (11738614_at) / Fold change /veh KRTAP10-2 (11738614_at) / RFU ARHGAP8 /// PRR5-ARHGAP8 (11727945_x_at) / Fold change /veh ARHGAP8 /// PRR5-ARHGAP8 (11727945_x_at) / RFU KRTAP5-7 /// NADSYN1 (11734609_at) / Fold change /veh KRTAP5-7 /// NADSYN1 (11734609_at) / RFU RASL12 (11751679_a_at) / Fold change /veh RASL12 (11751679_a_at) / RFU CDKN2B (11736163_a_at) / Fold change /veh CDKN2B (11736163_a_at) / RFU PRF1 (11729649_at) / Fold change /veh PRF1 (11729649_at) / RFU, ZNF638 /// ZNF638-IT1 / Fold change vs veh, ZNF638 /// ZNF638-IT1 / RFU, PANK3 / Fold change vs veh, PANK3 / RFU, SH3YL1 / Fold change vs veh, SH3YL1 / RFU, ZEB2 / Fold change vs veh, ZEB2 / RFU, NRIP1 / Fold change vs veh, NRIP1 / RFU, PTTG1IP / Fold change vs veh, PTTG1IP / RFU, CAPN2 / Fold change vs veh, CAPN2 / RFU, MED14 / Fold change vs veh, MED14 / RFU, SNORA58 / Fold change vs veh, SNORA58 / RFU, C1orf63 / Fold change vs veh, C1orf63 / RFU, LRRFIP1 / Fold change vs veh, LRRFIP1 / RFU, NDUFAF7 / Fold change vs veh, NDUFAF7 / RFU, SLC12A2 / Fold change vs veh, SLC12A2 / RFU, IBTK / Fold change vs veh, IBTK / RFU, ESF1 / Fold change vs veh, ESF1 / Fold change vs veh, TMEM50B / RFU, TAOK1 / Fold change vs veh, TAOK1 / RFU, ACBD3 / Fold change vs veh, ACBD3 / RFU, TMA16 / Fold change vs veh, TMA16 / RFU, RWDD3 / Fold change vs veh, RWDD3 / RFU, BCAT1 / Fold change vs veh, BCAT1 / RFU, EDEM3 / Fold change vs veh, EDEM3 / RFU, TMEM33 / Fold change vs veh, TMEM33 / RFU, WDR75 / Fold change vs veh, WDR75 / RFU, AHCTF1 / Fold change vs veh, AHCTF1 / RFU, TFRC / Fold change vs veh, TFRC / RFU, ZDHHC17 / Fold change vs veh, ZDHHC17 / RFU, NOM1 / Fold change vs veh, NOM1 / RFU, ARL8B / Fold change vs veh, ARL8B / RFU, ZBTB11 / Fold change vs veh, ZBTB11 / RFU, TAMM41 / Fold change vs veh, TAMM41 / RFU, KIAA1704 /// LOC100996395 / Fold change vs veh, KIAA1704 /// LOC100996395 / RFU, ING1 / Fold change vs veh, ING1 / RFU, TRMT61B / Fold change vs veh, TRMT61B / RFU, FUBP3 / Fold change vs veh, FUBP3 / RFU, TP53 / Fold change vs veh, TP53 / RFU, TNKS2 / Fold change vs veh, TNKS2 / RFU, ZFP14 / Fold change vs veh, ZFP14 / RFU, ACTR2 / Fold change vs veh, ACTR2 / RFU, PPP3R1 / Fold change vs veh, PPP3R1 / RFU, PIK3R1 / Fold change vs veh, PIK3R1 / RFU, HNRNPA1 / Fold change vs veh, HNRNPA1 / RFU, RNF170 / Fold change vs veh, RNF170 / RFU, ZNF28 / Fold change vs veh, ZNF28 / RFU, RNGTT / Fold change vs veh, RNGTT / RFU, OGT / Fold change vs veh, OGT / RFU, BRD1 / Fold change vs veh, BRD1 / RFU, MARS / Fold change vs veh, MARS / RFU, ZNF655 / Fold change vs veh, ZNF655 / RFU, FAHD1 / Fold change vs veh, FAHD1 / RFU, BDP1 / Fold change vs veh, BDP1 / RFU, LRRCC1 / Fold change vs veh, LRRCC1 / RFU, ARID1A / Fold change vs veh, ARID1A / RFU, ZNF146 / Fold change vs veh, ZNF146 / RFU, ZNF330 / Fold change vs veh, ZNF330 / RFU, GPN3 / Fold change vs veh, GPN3 / RFU, C9orf123 / Fold change vs veh, C9orf123 / RFU, N4BP2L2 / Fold change vs veh, N4BP2L2 / RFU, ARFIP1 / Fold change vs veh, ARFIP1 / RFU, FAM179B / Fold change vs veh, FAM179B / RFU, BCL10 / Fold change vs veh, BCL10 / RFU, UHRF1BP1L / Fold change vs veh, UHRF1BP1L / RFU, BET1 / Fold change vs veh, BET1 / RFU, CNOT2 / Fold change vs veh, CNOT2 / RFU, ZNF268 / Fold change vs veh, ZNF268 / Fold change vs veh, ZNF507 / RFU, DGCR2 / Fold change vs veh, DGCR2 / RFU, WDSUB1 / Fold change vs veh, WDSUB1 / Fold change vs veh, HSP90B1 /// MIR3652 / RFU, ADSS / Fold change vs veh, ADSS / RFU, GK / Fold change vs veh, GK / RFU, ZNF148 / Fold change vs veh, ZNF148 / RFU, TAF9 / Fold change vs veh, TAF9 / RFU, SLC1A5 / Fold change vs veh, SLC1A5 / RFU, SLMO2 / Fold change vs veh, SLMO2 / RFU, ABCC4 / Fold change vs veh, ABCC4 / RFU, LOC101060439 /// RAP1B / Fold change vs veh, LOC101060439 /// RAP1B / RFU, RFX7 / Fold change vs veh, RFX7 / RFU, GTPBP10 / Fold change vs veh, GTPBP10 / RFU, CNEP1R1 / Fold change vs veh, CNEP1R1 / RFU, BIVM-ERCC5 /// ERCC5 / Fold change vs veh, BIVM-ERCC5 /// ERCC5 / RFU, ILF3 / Fold change vs veh, ILF3 / RFU 11762660_at / Fold change /veh 11762660_at / RFU VCAN (11757783_s_at) / Fold change /veh VCAN (11757783_s_at) / RFU DDX43 (11728927_at) / Fold change /veh DDX43 (11728927_at) / RFU KRT8 (11758188_x_at) / Fold change /veh KRT8 (11758188_x_at) / RFU NKD1 (11759106_at) / Fold change /veh NKD1 (11759106_at) / RFU SRD5A1 (11742802_a_at) / Fold change /veh SRD5A1 (11742802_a_at) / RFU TPSAB1 /// TPSB2 (11721975_s_at) / Fold change /veh TPSAB1 /// TPSB2 (11721975_s_at) / RFU GSTM3 (11746129_a_at) / Fold change /veh GSTM3 (11746129_a_at) / RFU IL23R (11737362_x_at) / Fold change /veh IL23R (11737362_x_at) / RFU TMEM51 (11727254_a_at) / Fold change /veh TMEM51 (11727254_a_at) / RFU PIWIL2 (11732686_x_at) / Fold change /veh PIWIL2 (11732686_x_at) / RFU ORM1 (11744905_x_at) / Fold change /veh ORM1 (11744905_x_at) / RFU CCDC152 (11743942_at) / Fold change /veh CCDC152 (11743942_at) / RFU ECM1 (11717891_a_at) / Fold change /veh ECM1 (11717891_a_at) / RFU IL23R (11748794_a_at) / Fold change /veh IL23R (11748794_a_at) / RFU TNFAIP8L3 (11732012_x_at) / Fold change /veh TNFAIP8L3 (11732012_x_at) / RFU MBOAT4 (11741988_at) / Fold change /veh MBOAT4 (11741988_at) / RFU 11764193_at / Fold change /veh 11764193_at / RFU TMEM53 (11763286_at) / Fold change /veh TMEM53 (11763286_at) / RFU MAGEB2 (11727129_at) / Fold change /veh MAGEB2 (11727129_at) / RFU TMEM200A (11744735_a_at) / Fold change /veh TMEM200A (11744735_a_at) / RFU CCDC152 (11751479_a_at) / Fold change /veh CCDC152 (11751479_a_at) / RFU FAM211A (11726209_a_at) / Fold change /veh FAM211A (11726209_a_at) / RFU RGS16 (11746705_a_at) / Fold change /veh RGS16 (11746705_a_at) / RFU VCAN (11755009_s_at) / Fold change /veh VCAN (11755009_s_at) / RFU RHOB (11743442_s_at) / Fold change /veh RHOB (11743442_s_at) / RFU RGS16 (11720943_a_at) / Fold change /veh RGS16 (11720943_a_at) / RFU RGS16 (11720944_at) / Fold change /veh RGS16 (11720944_at) / RFU, VPS4B / Fold change vs veh, VPS4B / RFU, CREB1 / Fold change vs veh, CREB1 / RFU, DNAJC13 / Fold change vs veh, DNAJC13 / RFU, GNAQ / Fold change vs veh, GNAQ / RFU, CDK5R1 / Fold change vs veh, CDK5R1 / RFU, ZRANB3 / Fold change vs veh, ZRANB3 / RFU, CUL4A / Fold change vs veh, CUL4A / RFU, CCNY / Fold change vs veh, CCNY / RFU, UFL1 / Fold change vs veh, UFL1 / RFU, COG3 / Fold change vs veh, COG3 / RFU, DIAPH2 / Fold change vs veh, DIAPH2 / RFU, SKA2 / Fold change vs veh, SKA2 / RFU, AFF3 / Fold change vs veh, AFF3 / RFU, LMF1 / Fold change vs veh, LMF1 / RFU, IPO11 / Fold change vs veh, IPO11 / RFU, DFFB / Fold change vs veh, DFFB / RFU, FOXP1 / Fold change vs veh, FOXP1 / RFU, CARD8 / Fold change vs veh, CARD8 / RFU, STRN3 / Fold change vs veh, STRN3 / RFU, ADK / Fold change vs veh, ADK / RFU, RASSF2 / Fold change vs veh, RASSF2 / RFU, WIPF1 / Fold change vs veh, WIPF1 / RFU, LARP1B / Fold change vs veh, LARP1B / RFU, RASA1 / Fold change vs veh, RASA1 / RFU, RB1 / Fold change vs veh, RB1 / RFU, PPFIA1 / Fold change vs veh, PPFIA1 / RFU, MAT2A / Fold change vs veh, MAT2A / RFU, CCT5 / Fold change vs veh, CCT5 / RFU, WDR92 / Fold change vs veh, WDR92 / RFU, CUX1 / Fold change vs veh, CUX1 / RFU, TTC7A / Fold change vs veh, TTC7A / RFU, TMEM135 / Fold change vs veh, TMEM135 / RFU, DEPTOR / Fold change vs veh, DEPTOR / RFU, CPM / Fold change vs veh, CPM / RFU, DNAJB6 / Fold change vs veh, DNAJB6 / RFU, CACNA2D3 / Fold change vs veh, CACNA2D3 / RFU, DTX4 / Fold change vs veh, DTX4 / RFU, TFCP2 / Fold change vs veh, TFCP2 / RFU, GMCL1 /// GMCL1P1 / Fold change vs veh, GMCL1 /// GMCL1P1 / RFU, AEBP2 / Fold change vs veh, AEBP2 / RFU, SNHG1 /// SNORD22 /// SNORD25 /// SNORD26 /// SNORD27 /// SNORD28 /// SNORD29 /// SNORD31 / Fold change vs veh, SNHG1 /// SNORD22 /// SNORD25 /// SNORD26 /// SNORD27 /// SNORD28 /// SNORD29 /// SNORD31 / Fold change (Aza/veh), C12orf56 (ProbeSet 11735607_a_at) / Fold change (ACY-1035/veh), C12orf56 (ProbeSet 11735607_a_at) / Fold change (Aza/veh), FGFR1OP (ProbeSet 11751329_s_at) / Fold change (ACY-1035/veh), FGFR1OP (ProbeSet 11751329_s_at) / Fold change (Aza/veh), VPS36 (ProbeSet 11739960_a_at) / Fold change (ACY-1035/veh), VPS36 (ProbeSet 11739960_a_at) / RFU SYPL1 (11715823_x_at) / Fold change /veh SYPL1 (11715823_x_at) / RFU IGFBP7 (11715501_s_at) / Fold change /veh IGFBP7 (11715501_s_at) / RFU REEP3 (11722064_at) / Fold change /veh REEP3 (11722064_at) / RFU IGLL1 (11728026_x_at) / Fold change /veh IGLL1 (11728026_x_at): dose or concentration left out as unconfirmed
# Settings: ProbeSet 11720566_at; LIST D
structure (smiles),measurement,value
Nc1ccc(-c2cccs2)cc1NC(=O)c1ccc2c(c1)cc(C1CC1)n2CCN1CCOCC1 [ACY-1035],"RFU, BCAT1",827.78 RFU
